According to patent US9994577B2, “Azepanyl-derivatives and pharmaceutical compositions comprising the same with antiparasitic activity” (Merck Patent GmbH, priority 2014, dated 2018):

test system: P. falciparum NF54; experiment: P. falciparum growth assay ([3H]hypoxanthine incorporation); assay type: cell-based; conditions: Plasmodium falciparum, [3H]-hypoxanthine incorporation at 72 h, read-out: EC50 (nM), concentration that inhibits by 50% the incorporation of [3H]-hypoxanthine
Experimental: P. falciparum strain NF54 was obtained from the Research and Reference Reagent Resource Center (MR4) (Manassas, Va.). The two strains were maintained in vitro by a modification of the method of Trager and Jensen. Cultures were maintained in A positive (A+) human erythrocytes suspended at 5% hematocrit in complete medium. 5 g albumax II (Gibco-Invitrogen, Cat No#11021037), 2.5 mg gentamicin (Sigma Aldrich), 25 mM HEPES (Invitrogen), 5 mg hypoxanthine (Sigma), and 1 L of RPMI 1640 (Invitrogen, Cat No#11875085). Cultures were grown in 100 mm petri-dishes (BD Falcon) at a volume of 15 mL and were kept in a standard gas environment of 4% CO2 and 3% O2 at temperature 37° C. in a tri-gas incubator (Cat#3131, Thermo Scientific Forma Series II Water Jacketed). Parasite growth and morphology were observed daily using thin smears at 100× (oil immersion) magnification following staining with Geimsa stain. […]
Parasite growth was detected in assay by the traditional [3H]hypoxanthine incorporation assay as previously described by Desjardins and colleagues (Antimicrob. Agents Chemother., 16(6), 710, 1979). To perform the [3H]hypoxanthine incorporation assay, the new antimalarial agents were serially diluted 1:1 into hypoxanthine-free complete medium to a final volume of 100 μL (final antimalarial agent concentration range, 10,000 nM to 4.8 nM may change in special case) in 96 well sterile cell culture plates. […] All cultures used in the study are albumax II adopted. The microtiter plates were incubated in chamber in a standard gas environment at 37° C. for 72 h. After 48 h of incubation and prior to addition of 50 μL (0.5 μCi/well) 3H-Hypoxanthine (specific activity, 20 Ci/mmol, Conc. 1.0 mCi/ml; American Radiolabeled Chemicals, Inc., St. Louis, Mo.), culture growth was assessed by making the smears that ensures the culture has grown and assay plate is further incubated for 24 h.
Following the incubation period, the plates were harvested with a FilterMate cell harvester (Perkin Elmer) onto unifilter-96 GF/B plates, washed with distilled water to remove excess radiochemical and plates were kept for drying 37° C. overnight or 60° C. for 1 h. 50 μL of Microscint scintillation cocktail (Microscint-High Efficiency LSC-Cocktail; Perkin Elmer) added in the unifilter-96 GF/B plates and kept for 15-20 min. The plates were counted in a Top Count NXT microplate scintillation and luminescence counter (Perkin Elmer). The mean values for [3H]hypoxanthine incorporation in parasitized control and non-parasitized control erythrocytes were calculated.

SMILES	EC50 [nM]
CS(=O)(=O)c1c(C(F)(F)F)ccc2c1c1cc(C(F)(F)F)ccc1n2C1CCCNC[C@@H]1O (mixture of isomers) [6 (mixture of isomers), (3R,4R)-4-[4-methylsulfonyl-3,6-bis(trifluoromethyl)carbazol-9-yl]azepan-3-ol]	45.9
COc1cc(Cl)cc2c3cc(Cl)ccc3n([C@H]3CCCNC[C@@H]3O)c12 (racemic) [8 (racemic), (3S,4S)-4-(3,6-dichloro-1-methoxy-9H-carbazol-9-yl)azepan-3-ol]	32.9
O[C@H]1CNCCCC1N1c2ccc(Cl)cc2Oc2cc(Cl)ccc21 (mixture of isomers) [10 (mixture of isomers), (3R,4R)-4-(3,7-dichloro-10H-phenoxazin-10-yl)azepan-3-ol]	21
COc1cc2c(cc1Cl)c1cc(Cl)ccc1n2[C@H]1CCCNC[C@@H]1O (racemic) [Compound 9, (3R,4R)-4-(3,6-dichloro-2-methoxy-9H-carbazol-9-yl)azepan-3-ol]	18
O[C@H]1CNCCC[C@@H]1n1c2ccc(C(F)(F)F)cc2c2cc(C(F)(F)F)cnc21 (racemic) [Compound 14 (i), (3R,4R)-4-[3,6-bis(trifluoromethyl)pyrido[2,3-b]indol-9-yl]azepan-3-ol]	16.6
O[C@@H]1CNCCC[C@H]1n1c2ccc(Cl)cc2c2cc(Cl)ccc21 (stereo in doubt) [Compound 2, (3R,4R)-4-(3,6-dichloro-9H-carbazol-9-yl)azepan-3-ol]	36.4
O[C@@H]1CNCCC[C@H]1n1c2ccc(C(F)(F)F)cc2c2cc(C(F)(F)F)ccc21 [Compound 3, (3R,4R)-4-[3,6-bis(trifluoromethyl)-9H-carbazol-9-yl]azepan-3-ol]	2.55
COc1cc2c(cc1C(F)(F)F)c1nc(C(F)(F)F)ccc1n2[C@@H]1CCCNC[C@H]1O [Compound 17, (3R,4R)-4-(7-methoxy-2,8-bis(trifluoromethyl)-5H-pyrido[3,2-b]indol-5-yl)azepan-3-ol]	12.8
COc1cc2c(cc1C(F)(F)F)c1nc(C(F)(F)F)ccc1n2[C@H]1CCCNC[C@@H]1O [Compound 18, (3S,4S)-4-(7-methoxy-2,8-bis(trifluoromethyl)-5H-pyrido[3,2-b]indol-5-yl)azepan-3-ol]	5.4
COc1cc(Cl)cc2c3nc(C(F)(F)F)ccc3n([C@@H]3CCCNC[C@H]3O)c12 [Compound 19, (3R,4R)-4-(8-chloro-6-methoxy-2-(trifluoromethyl)-5H-pyrido[3,2-b]indol-5-yl)azepan-3-ol]	24
COc1cc(Cl)cc2c3nc(C(F)(F)F)ccc3n([C@H]3CCCNC[C@@H]3O)c12 [Compound 20, (3S,4S)-4-(8-chloro-6-methoxy-2-(trifluoromethyl)-5H-pyrido[3,2-b]indol-5-yl)azepan-3-ol]	13.1
O[C@@H]1CNCCC[C@H]1n1c2ccc(Cl)cc2c2nc(C(F)(F)F)ncc21 [Compound 21, (3R,4R)-4-(8-chloro-2-(trifluoromethyl)-5H-pyrimido[5,4-b]indol-5-yl)azepan-3-ol]	41.7
O[C@H]1CNCCC[C@@H]1n1c2ccc(Cl)cc2c2nc(C(F)(F)F)ncc21 [Compound 22, (3S,4S)-4-(8-chloro-2-(trifluoromethyl)-5H-pyrimido[5,4-b]indol-5-yl)azepan-3-ol]	46.1
O[C@@H]1CNCCC[C@H]1n1c2ccc(C(F)(F)F)nc2c2cc(C(F)(F)F)cnc21 [Compound 23, (3R,4R)-4-(2,8-bis(trifluoromethyl)-5H-pyrrolo[2,3-b:4,5-b′]dipyridin-5-yl)azepan-3-ol]	11.2
O[C@H]1CNCCC[C@@H]1n1c2ccc(C(F)(F)F)nc2c2cc(C(F)(F)F)cnc21 [Compound 24, (3S,4S)-4-(2,8-bis(trifluoromethyl)-5H-pyrrolo[2,3-b:4,5-b′]dipyridin-5-yl)azepan-3-ol]	2.3
O=C1CC[C@@H](n2c3ccc(Cl)cc3c3cc(Cl)ccc32)[C@H](O)CN1 [Compound 27, (5R,6R)-5-(3,6-dichloro-9H-carbazol-9-yl)-6-hydroxyazepan-2-one]	28.2

test system: P falciparum PF3D/0087/N9; experiment: In vivo efficacy in a murine model of P. falciparum-malaria (4-day test); set-up: species or system Plasmodium falciparum; conditions: NODscidIL2Rynull mice engrafted with human erythrocytes
From the text: In vivo efficacy against P falciparum PF3D/0087/N9 for the compounds no. 2 and 3 as described in Examples 16 and 17.
The in vivo activity in a murine model of P. falciparum-malaria was adapted from the protocol as provided by Angulo-Barturen I, Jimènez-Diaz M B, Mulet T, Rullas J, Herreros E, et al. (2008) PLoS ONE 3(5): e2252. doi:10.1371/journal.pone.0002252.
This study measures the therapeutic efficacy of compounds no. 2 and 3 against Plasmodium falciparum growing in peripheral blood of NODscidIL2Rynull mice engrafted with human erythrocytes. The antimalarial efficacy of compounds no. 2 and 3 were assessed using a “4-day test”.
The parameters of efficacy estimated in the study are a) the dose of compounds no. 2 and 3 in mg·kg^−1 that reduces parasitemia at day 7 after infection by 90% with respect to vehicle-treated mice (parameter denoted as ED90)

SMILES	ED90, dose that reduces parasitemia at day 7 after infection by 90% with respect to vehicle-treated mice [mg/kg]
O[C@@H]1CNCCC[C@H]1n1c2ccc(Cl)cc2c2cc(Cl)ccc21 (stereo in doubt) [Compound 2, (3R,4R)-4-(3,6-dichloro-9H-carbazol-9-yl)azepan-3-ol]	< 10
O[C@@H]1CNCCC[C@H]1n1c2ccc(C(F)(F)F)cc2c2cc(C(F)(F)F)ccc21 [Compound 3, (3R,4R)-4-[3,6-bis(trifluoromethyl)-9H-carbazol-9-yl]azepan-3-ol]	< 3
